From US20250325565A1, “ERAVACYCLINE FOR TREATING CANCER” (B. G. NEGEV TECHNOLOGIES AND APPLICATIONS LTD., priority 2022, published 2025)

How the values were obtained:
Type in all cases: cell-based, human
BxPC-3 cells = assay: XTT cell proliferation assay, BxPC-3
Experimental: (§1) Human PDAC (AsPC-1, BxPC-3, Panc-1 scr, Panc-1 p53-R273H knock-out (KO) hTERT-HPNE), breast (MCF-7), lung (A549), and colon (HT-29) cancer cell lines were purchased from the American Type Culture Collection (ATCC). The MCF-7, A549, Panc-1 scr, Panc-1 p53 KO and HT-29 cell lines were grown in Dulbecco's Modified Eagle Medium (DMEM; Biological Industries, Beit HaEmek (BI), Israel), and the BxPC-3 and AsPC-1 cell lines were cultured in Roswell Park Memorial Institute-1640 (RPMI-1640; BI, Israel) medium. All media was supplemented with 10% fetal bovine serum (FBS), 200 μM L-glutamine (BI), and 1% penicillin-streptomycin (BI). Cells were cultured at 37° C. in a 5% CO2 humidified incubator.
(§2) Eravacycline dihydrochloride (MedChem Express (MCE)) was dissolved in […] (DDW). Tigecycline (MCE) and omadacycline (MCE) were dissolved in dimethyl sulphoxide (DMSO). All drugs were prepared as 100 mM stock solutions. All cell lines were treated with DMSO as a control (less than 0.1%) or tigecycline, omadacycline, or eravacycline (at the indicated concentrations) for 72 hours. Cell viability and proliferation were determined using the XTT Cell Proliferation Assay Kit (Promega).
(§3) The XTT Cell Proliferation Assay Kit was used to determine cell viability and proliferation. Cells were seeded in 96-well plates at a density of 4,000 cells per well and allowed to attach overnight in a 5% CO2 incubator at 37° C. After overnight incubation, cells were treated with culture medium or in a medium containing tigecycline, omadacycline, or eravacycline at different concentrations (1, 2, 5, 10, 25, and 50 μM) for the indicated time period. Then, 50 μl XTT reaction solution (0.1 ml activation solution+5 ml XTT reagent solution) was added to each well, and the plate was incubated at 37° C. for two hours. After shaking the plate gently to distribute the dye in the wells, the absorbance was measured with a spectrophotometer (Bio-RadiMark Microplate Absorbance reader) at a wavelength of 450 nm and a reference wavelength of 655 nm.
(§4) To evaluate the half maximal inhibitory concentration (IC50) of tetracycline derivatives on five different cell lines (MCF-7, A549, HT-29, BxPC-3, and AsPC-1), the cells were seeded and allowed to attach overnight. All cells were washed with phosphate buffered saline (PBS) and then cultured in fresh media containing the drugs tigecycline, omadacycline, or eravacycline at an increasing concentration (0-50 μM) for 72 h. Inhibition of cell proliferation was determined using the XTT Cell Proliferation Assay Kit.
(§5) To investigate the effect of tetracycline derivatives on cell proliferation in human breast, lung, colon, and PDAC cells, the inventors treated all cell lines (MCF-7, A549, HT-29, BxPC-3, and AsPC-1) with different concentrations of tigecycline, omadacycline, and eravacycline (1, 2, 5, 10, 25, and 50 μM), with medium used as a control, for 72 h. Then, an XTT assay was performed to determine the growth inhibition rate.

p53 (mutated in BxPC-3) = assay: Western blot of p53 protein expression in BxPC-3 cells; settings: BxPC-3, 72 h, increasing concentrations
POLK = assay: Western blot of POLK protein expression in BxPC-3 cells; settings: BxPC-3, 72 h, increasing concentrations
AsPC-1 cells = assay: XTT cell proliferation assay, AsPC-1
Experimental: as §1, §2, §3, §4, §5

MCF-7 cells = assay: XTT cell proliferation assay, MCF-7; settings: MCF-7, 72 h, 1-50 μM
Experimental: as §1, §2
(§6) The XTT Cell Proliferation Assay Kit was used to determine cell viability and proliferation. Cells were seeded in 96-well plates at a density of 4,000 cells per well and allowed to attach overnight in a 5% CO2 incubator at 37° C. […] After shaking the plate gently to distribute the dye in the wells, the absorbance was measured with a spectrophotometer (Bio-RadiMark Microplate Absorbance reader) at a wavelength of 450 nm and a reference wavelength of 655 nm.
(§7) To evaluate the half maximal inhibitory concentration (IC50) of tetracycline derivatives on five different cell lines (MCF-7, A549, HT-29, BxPC-3, and AsPC-1), the cells were seeded and allowed to attach overnight. […] Inhibition of cell proliferation was determined using the XTT Cell Proliferation Assay Kit. […]

A549 cells = assay: XTT cell proliferation assay, A549; settings: A549, 72 h, 1-50 μM
Experimental: as §1, §2, §6, §7

HT-29 cells = assay: XTT cell proliferation assay, HT-29; settings: HT-29, 72 h, 1-50 μM
Experimental: as §1, §2, §6, §7

| Structure (SMILES) | decrease in cell growth (BxPC-3 cells; BxPC-3, 1 μM, 72 h) [%] | decrease in cell growth (BxPC-3 cells; BxPC-3, 10 μM, 72 h) [%] | p53 protein expression vs control (p53 (mutated in BxPC-3)) | POLK protein expression vs control (POLK) | effect on cell survival / viability (in words) (AsPC-1 cells; AsPC-1, 72 h, 1-50 μM) | effect on cell survival / proliferation (in words) (MCF-7 cells) | effect on cell survival / viability (in words) (BxPC-3 cells; BxPC-3, 72 h, 1-50 μM) | effect on cell survival / proliferation (in words) (A549 cells) | effect on cell survival / proliferation (in words) (HT-29 cells) | suppression of proliferation, up to (AsPC-1 cells; AsPC-1, 72 h, concentration-dependent, 1-50 μM) | IC50 (AsPC-1 cells; Homo sapiens, ASPC1, 72 h, read-out: IC50, inhibition of cell proliferation) [µM] | suppression of proliferation, up to (BxPC-3 cells; BxPC-3, 72 h, concentration-dependent, 1-50 μM) | cytotoxicity at 25 µM (BxPC-3 cells; Homo sapiens, BXPC-3, 72 h, BxPC-3, 25 μM, 72 h, read-out: decrease in cell growth / viability) [%] | IC50 (BxPC-3 cells; Homo sapiens, BXPC-3, 72 h, read-out: IC50, inhibition of cell proliferation) [µM] | suppression of proliferation, up to (A549 cells; concentration-dependent) |
| --- | --- | --- | --- | --- | --- | --- | --- | --- | --- | --- | --- | --- | --- | --- | --- |
| COc1cccc2c1C(=O)c1c(O)c3c(c(O)c1C2=O)C[C@@](O)(C(=O)CO)C[C@@H]3O[C@H]1C[C@H](N)[C@H](O)[C@H](C)O1 [doxorubicin] | 67 | 94 | Neither gemcitabine nor doxorubicin reduced | Neither gemcitabine nor doxorubicin reduced | – | – | – | – | – | – | – | – | – | – | – |
| Nc1ccn([C@@H]2O[C@H](CO)[C@@H](O)C2(F)F)c(=O)n1 [gemcitabine] | 77 | 80 | Neither gemcitabine nor doxorubicin reduced | Neither gemcitabine nor doxorubicin reduced | – | – | – | – | – | – | – | – | – | – | – |
| CN(C)c1cc(CNCC(C)(C)C)c(O)c2c1C[C@H]1C[C@H]3[C@H](N(C)C)C(O)=C(C(N)=O)C(=O)[C@@]3(O)C(O)=C1C2=O [omadacycline] | – | – | – | – | no significant effect on cell survival | no significant effect on cell survival | no significant effect on cell survival | no significant effect on cell survival | no significant effect on cell survival | – | – | – | – | – | – |
| CN(C)c1cc(NC(=O)CNC(C)(C)C)c(O)c2c1C[C@H]1C[C@H]3[C@H](N(C)C)C(O)=C(C(N)=O)C(=O)[C@@]3(O)C(O)=C1C2=O [tigecycline] | – | – | – | – | – | no significant effect | – | – | no significant effect | 60-65% | 4.58 | 60-65% | 60 | 9.9 | 60-65% |
